# How the values were obtained:
# [1] = tested on: peripheral serotonin production; assay: Pilot study of tryptophan hydroxylase inhibitors on peripheral serotonin production in ovariectomized mice, Example 12; type: in vivo; details: pCPA used as control; FIG. 15
# Description: (§1) 6-week old C57Bl/6 inbred female mice, weighing 12-14 g, were used in the experiments. Animals were housed under 12 h light/12 h dark conditions in a room with controlled temperature (22° C.) and humidity (60%). Mice had ad libitum access to food and water, and were used after a minimum of 4 days of acclimatization to the housing conditions. All experiments were conducted following Columbia University Guidelines for the Animal Use and Care of laboratory mice.
# Animals were separated into different groups one day prior to the experiments. Mice were ovariectomized (OVX) under anaesthesia (Avertin). Compounds were fed orally (Gavage) twice a day at 1700 h and at 1100 h for the pilot study while for the long term study compounds were given at 1700 h once a day. […] This route creates two potential barriers for the compound to reach the brain. […] Control animals received the same volume of vehicle. Blood was collected through heart puncture on isofluorane-anaesthesized animals, allowed to clot for 5 minutes on ice and then serum was separated, snap chilled in liquid nitrogen and frozen at −80° C. till analyzed. Mice were observed daily for any physical or behavioral abnormality during the course of investigation.
# • Group 1: Vehicle • Group 2: Compound 1 • Group 3: Compound 2 • Group 4: Compound 3 • Group 5: Compound 4 (LP-533401) Experiment II: Effect of Compounds 1 and 4 on Protection from OVX-Induced Bone Loss Protocol 1: Gavage Feeding of the Compounds Will be Started 1 Day after OVX for 6 Weeks • Group 1: Sham treatment • Group 2: OVX • Group 3: OVX+Compound 1 (250 mg/kg) • Group 4: OVX+Compound 1 (500 mg/kg) • Group 5: OVX+Compound 4 (250 mg/kg) Protocol 2: Gavage Feeding of the Compounds Will be Started 2 Weeks after OVX for 6 Weeks • Group 1: Sham treatment • Group 2: OVX • Group 3: OVX+Compound 1 (250 mg/kg) • Group 4: OVX+Compound 1 (500 mg/kg) • Group 5: OVX+Compound 4 (250 mg/kg) Protocol 3: Gavage Feeding of the Compounds Will be Started 4 Weeks after OVX for 6 Weeks • Group 1: Sham treatment • Group 2: OVX • Group 3: OVX+Compound 1 (250 mg/kg) • Group 4: OVX+Compound 1 (500 mg/kg) • […] Serotonin Measurement in Serum
# The Serotonin ELISA kit obtained from the Fitzgerald company was used to measure derivatized serotonin from serum. Derivatization is part of the sample preparation. Serotonin present in the serum was first quantitatively acylated using the acylation reagent into N-Acylserotonin. The principle of the assay is based on competitive ELISA, wherein serotonin that is bound to the solid phase of the plate and the N-acylserotonin compete for the fixed number of antiserum binding sites. When the reaction is in equilibrium, free antigen and free antigen-antiserum complexes are removed by washing. The antibody bound to the solid phase serotonin is then detected by anti-rabbit/peroxidase. The substrate TMB/Peroxidase reaction is read at 450 nm. The amount of antibody bound to the solid phase serotonin is inversely proportional to the concentration of serotonin in the sample.
# We used Catechol-3,6-bis methyleneiminodiacetic acid [(CBMIDA) Compound 1: basic structure is a EDTA-like compound and the catechol ring is at the center)] synthesized at the Columbia University Chemistry division and para-Chlorophenylalanine (pCPA) obtained from Sigma Aldrich Corp. for our experiments. Compounds were dissolved with twice molar solution of NaHCO3 in water and given to mice orally at 250 and 500 mg/kg/dose. Compounds 2 and 3 were dissolved in water.
# serotonin in the brain = assay: Brain serotonin and blood brain barrier crossing after oral feeding; type: in vivo, mice
# Description: (§2) The ability of selective TPH1 inhibitor CBMIDA to reduce peripheral serotonin measured in serum was tested. Either 250 or 500 mg/kg doses of CBMIDA were administered orally twice in 20 hours to 4 week old mice, 4-5 mice per group. As a control, some mice were untreated and some received 250 mg/kg pCPA orally. […] CBMIDA has been reported to be an EDTA analog that increases osteoid volume in beagle dogs and induces proliferation of rat calvarial-derived osteoblasts in vitro (Xie, et al., Bioorganic & Medicinal Chemistry Letters 15 (2005) 3267-3270, incorporated herein by reference in its entirety).
# (§3) Before the experiments, animals were separated into individual cages one day prior to the experiment. Compounds were fed orally (gavage) to the mouse, calculated according to the weight of the mouse, twice a day at 1700 h and at 1100 h. […] This route created two potential barriers for the compound to reach the brain. […] Control animals received the same volume of vehicle. Blood was collected through heart puncture on isofluorane-anaesthesized animals and allowed to clot for 5 minutes on ice. The serum was separated, snap chilled in liquid nitrogen and frozen at −80° C. till analyzed. Brainstems from all the animals were collected and processed for brain serotonin measurement through HPLC.
# peripheral serotonin = assay: Effect of oral CBMIDA on peripheral serotonin production in mice (serum serotonin ELISA), Example 1; type: in vivo
# Description: as §2
# as §1, with “One month” for “6-week”, “male” for “female”, “15-16 g” for “12-14 g,”
# as §3
# The Serotonin ELISA kit obtained from the Fitzgerald company was used to measure derivatized serotonin from serum. Derivatization is part of the sample preparation. Serotonin present in the serum was first quantitatively acylated into N-Acylserotonin using the acylation reagent. The principle of the assay is based on competitive ELISA, wherein serotonin that is bound to the solid phase of the plate and the N-acylserotonin compete for the fixed number of antiserum binding sites. When the reaction is in equilibrium, free antigen and free antigen-antiserum complexes are removed by washing.
# The antibody bound to the solid phase serotonin is then detected using antirabbit/peroxidase. The substrate TMB/Peroxidase reaction is read at 450 nm. The amount of antibody bound to the solid phase serotonin is inversely proportional to the concentration of serotonin in the sample.
# Catechol-3,6-bis methyleneiminodiacetic acid (CBMIDA) (basic structure is an EDTA-like compound and the catechol ring is at the centre) synthesized at the Columbia University Chemistry division, and para-chlorophenylalanine (pCPA) obtained from Sigma Aldrich Corp. were used. Each compound was dissolved with twice molar solution of NaHCO3 in water and given to mouse orally at 250 and 500 mg/kg/dose.
smiles,measurement,setting,value
"NC(Cc1ccc(Cl)cc1)C(=O)O (centres unmarked) [pCPA, para-chlorophenylalanine]",serotonin levels decreased to % below normal range,[1],60%
same,serotonin in the brain,serotonin in the brain; 250 mg/kg orally,did not decrease
same,crossing of the blood brain barrier,serotonin in the brain; at the amounts used (250 mg/kg),did not cross
same,reduction of peripheral serotonin measured in serum,"peripheral serotonin; 250 mg/kg orally twice in 20 hours, 4 week old mice",~50%
same,serum serotonin levels decreased to % below normal range,"peripheral serotonin; pCPA used as control, oral, FIG. 11",> 60%
